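Tested at 5 concentrations; 48 h exposure; 96-well plates; endpoints linearly interpolated, else capped at highest concentration. Abbreviation: GI50, concentration required for 50% inhibition of growth. TGI marks complete inhibition of growth.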
Tests used:
Experiment in all cases: NCI-60 cell line screen, 48 h; in the data active = GI50 below about 0.43 µM; inactive = the rest
[1] = test system: SK-MEL-28 melanoma
[2] = test system: NCI-H522 lung
[3] = test system: SF-268 CNS
[4] = test system: OVCAR-3 ovarian
[5] = test system: CCRF-CEM leukemia
[6] = test system: MALME-3M melanoma
[7] = test system: HS 578T breast
[8] = test system: A549 NSCLC
[9] = test system: NCI-H460 lung
[10] = test system: HOP-92 NSCLC
[11] = test system: MDA-MB-231 breast
[12] = test system: SK-MEL-2 melanoma
[13] = test system: NCI/ADR-RES ovarian
[14] = test system: MCF7 breast
[15] = test system: SK-OV-3 ovarian
[16] = test system: K-562 leukemia
[17] = test system: NCI-H226 lung
[18] = test system: BT-549 breast
[19] = test system: EKVX NSCLC
[20] = test system: SK-MEL-5 melanoma
[21] = test system: A498 renal
[22] = test system: HCT-116 colon
[23] = test system: M14 melanoma
[24] = test system: DU-145 prostate
[25] = test system: SF-295 CNS
[26] = test system: IGROV1 ovarian
[27] = test system: SN12C renal
[28] = test system: RPMI-8226 leukemia
[29] = test system: UO-31 renal
[30] = test system: HCT-15 colon
[31] = test system: SR leukemia
[32] = test system: RXF 393 renal
[33] = test system: T-47D breast
[34] = test system: SNB-75 CNS
[35] = test system: CAKI-1 renal
[36] = test system: ACHN renal
[37] = test system: UACC-257 melanoma
[38] = test system: KM12 colon
[39] = test system: OVCAR-5 ovarian
[40] = test system: SW-620 colon
[41] = test system: TK-10 renal
[42] = test system: NCI-H23 lung
[43] = test system: PC-3 prostate
[44] = test system: SF-539 CNS
[45] = test system: SNB-19 CNS
[46] = test system: LOX IMVI melanoma
[47] = test system: MDA-MB-435
[48] = test system: OVCAR-8 ovarian
[49] = test system: UACC-62 melanoma
[50] = test system: HCC-2998 colon
[51] = test system: 786-0 renal

COc1cc2nccc(Oc3ccc(NC(=O)C4(C(=O)Nc5ccc(F)cc5)CC4)cc3)c2cc1OC(=O)c1ccc(N)cc1
4.91 µM: TGI [16]
14.5 µM: TGI [12]
1.99 µM: TGI [32]
6.58 µM: TGI [29]
54.2 µM: TGI [9]
> 100 µM: TGI [2] | TGI [3] | TGI [4] | TGI [5] | TGI [6] | TGI [8] | TGI [13] | TGI [14] | TGI [17] | TGI [18] | TGI [19] | TGI [20] | TGI [22] | TGI [23] | TGI [24] | TGI [26] | TGI [27] | TGI [28] | TGI [30] | TGI [31] | TGI [33] | TGI [35] | TGI [36] | TGI [37] | TGI [38] | TGI [39] | TGI [40] | TGI [41] | TGI [42] | TGI [43] | TGI [45] | TGI [47] | TGI [48] | TGI [49] | TGI [50]
2.04 µM: TGI [44]
4.53 µM: TGI [21]
8.05 µM: TGI [15]
1.47 µM: TGI [25]
active: GI50 [7] 0.29 µM | GI50 [10] 0.2 µM | GI50 [25] 0.262 µM | GI50 [32] 0.314 µM | GI50 [34] 0.199 µM | GI50 [38] 0.0936 µM | GI50 [44] 0.246 µM
5.16 µM: TGI [1]
6.53 µM: TGI [11]
2.42 µM: TGI [10]
1.39 µM: TGI [34]
inactive: GI50 [1] 1.34 µM | GI50 [2] 2.65 µM | GI50 [3] 1.63 µM | GI50 [4] 4.36 µM | GI50 [5] 2.6 µM | GI50 [6] 2.47 µM | GI50 [8] 3.11 µM | GI50 [9] 3.49 µM | GI50 [11] 1.98 µM | GI50 [12] 2.38 µM | GI50 [13] 3.74 µM | GI50 [14] 1.72 µM | GI50 [15] 2.95 µM | GI50 [16] 1.09 µM | GI50 [17] 3.11 µM | GI50 [18] 2.88 µM | GI50 [19] 5.31 µM | GI50 [20] 4.46 µM | GI50 [21] 2.03 µM | GI50 [22] 3.08 µM | GI50 [23] 2.79 µM | GI50 [24] 3.48 µM | GI50 [26] 6.92 µM | GI50 [27] 1.39 µM | GI50 [28] 2.66 µM | GI50 [29] 1.58 µM | GI50 [30] 2.17 µM | GI50 [31] 0.626 µM | GI50 [33] 2.92 µM | GI50 [35] 2.68 µM | GI50 [36] 3.73 µM | GI50 [37] 4.91 µM | GI50 [39] 2.23 µM | GI50 [40] 2.92 µM | GI50 [41] 6.62 µM | GI50 [42] 1.98 µM | GI50 [43] 2.5 µM | GI50 [45] 3.05 µM | GI50 [46] 1.92 µM | GI50 [47] 2.18 µM | GI50 [48] 5.77 µM | GI50 [49] 2.85 µM | GI50 [50] 3.88 µM | GI50 [51] 1.81 µM
5.31 µM: TGI [46]
4.45 µM: TGI [51]
2.07 µM: TGI [7]
